In US20140335396A1, “Microporous Membrane” (ASAHI KASEI E-MATERIALS CORPORATION, priority 2011, published 2014) one finds Solubility in water data, which are given here for two compounds.

The series in a line: Solubility in water of the surfactant. Conditions: water at 25° C. It is filed as physicochemical. The method, then:
As long as the above-described surfactant adhered to a base membrane includes at least a surfactant (A) soluble in water and a surfactant (B) insoluble in water, the above-described surfactant adhered to a base membrane may also include another surfactant (i.e., a surfactant having a solubility in water of 0.1 g based on 100 g of water to 5 g based on 100 g of water.)
(7) Solubility in Water (g Per 100 g of Water)
Aliquots, each of which is 0.01 g of a surfactant, were added one by one to 100 g of water at 25° C. while stirring. The total amount of the surfactant added (g) when the solution changed from clear to opaque was taken as the degree of the solubility in water

As for `CCCCCCCC/C=C/CCCCCCCC1=NCCN1CCO` [oleyl imidazoline], the Solubility in water is ≤ 0.1 g per 100 g of water.

Turning to polyoxyethylene alkyl ether, the Solubility in water is on record as ≥ 5 g per 100 g of water.
